Measurements as given in patent US7147837B2, “Bioactivated diagnostic imaging constrast agents” (Epix Pharmaceuticals, Inc., priority 1996, dated 2006).
Where two headings read alike, the source gives them in different places.

Columns and labels:
[1] = biological target: T1, HSA (Homo sapiens, UniProt P02768); conditions: cited from earlier work
[2] = system: alkaline phosphatase; experiment: T1-weighted MRI scan at 1.0 Tesla of 4.5% HSA solutions with or without alkaline phosphatase; type: biochemical
Experimental: Solutions of 4.5% HSA containing compounds 1 and 8 (0.1–0.2 mM) were prepared. After 15 minutes, an initial T1-weighted MRI scan (FISP-3D, TR=60, TE=5, alpha=60) at 1.0 Tesla of the 4.5% HSA solutions was obtained. […] Three units of alkaline phosphatase were added to half of the HSA solutions containing 1 and additional T1-weighted MRI scans were obtained. After 130 minutes, the solutions that contained 1 and alkaline phosphatase obtained 96% of the signal intensity that for the solutions that contain 8 at equivalent concentrations. […] A 20% increase in signal intensity was observed after addition of alkaline phosphatase to solutions containing 1.

[3] = biological target: T2, human serum albumin (HSA) (Homo sapiens, UniProt P02768); experiment: Percent bound to HSA by ultrafiltration; type: binding; conditions: for Percent Binding in 4.5% HSA: ultrafiltration, 0.1 mM chelate
T2 sequence (P02768 25-609): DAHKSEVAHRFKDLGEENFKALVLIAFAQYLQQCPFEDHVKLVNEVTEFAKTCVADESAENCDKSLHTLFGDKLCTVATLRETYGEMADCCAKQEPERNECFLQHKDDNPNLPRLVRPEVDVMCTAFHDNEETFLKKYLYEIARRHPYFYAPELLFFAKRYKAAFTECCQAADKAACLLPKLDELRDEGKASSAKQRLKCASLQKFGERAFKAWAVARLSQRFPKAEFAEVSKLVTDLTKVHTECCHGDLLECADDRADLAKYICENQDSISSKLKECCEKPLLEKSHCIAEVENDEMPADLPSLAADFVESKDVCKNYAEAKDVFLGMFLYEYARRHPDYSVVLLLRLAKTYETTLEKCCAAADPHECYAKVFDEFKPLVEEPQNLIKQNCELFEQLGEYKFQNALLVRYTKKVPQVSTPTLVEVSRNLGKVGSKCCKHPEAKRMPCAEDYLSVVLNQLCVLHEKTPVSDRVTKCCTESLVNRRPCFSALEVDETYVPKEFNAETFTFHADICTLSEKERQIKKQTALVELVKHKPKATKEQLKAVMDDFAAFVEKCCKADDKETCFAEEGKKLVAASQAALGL
Experimental: Protein binding of contrast agents can be assessed in vitro by equilibrium dialysis or ultrafiltration using a physiologically relevant protein concentration in buffer. See, G. N. Rolinson and R. Sutherland, British J. Pharmac. Chemother. (1965), 25, p. 638 (ultrafiltration); D. Glick, Methods Biochem. Anal. (1956), 3 p. 265 (equilibrium dialysis). The protein binding measurements set forth in this application are determined by ultrafiltration using 4.5% (w/w) human serum albumin in phosphate buffered saline (0.15 NaCl, 10 mM phosphate, pH 7.4). Preferably at least 10%, and more preferably at least 50%, and even more preferably at least 80%, and most preferably at least 95%, of an activated protein-binding contrast agent will be bound to the protein under physiologically relevant conditions. In this application, the measurement of percent binding of the contrast agent to HSA has an error of approximately +/−5%. Protein binding to other proteins or to serum can be assessed in a similar fashion.
(§1) In Table V, the longitudinal relaxivities (R1) were obtained at 20 MHz and 37° C. by determining the concentration dependent relaxation rate (1/T1) of water protons in phosphate buffered saline (PBS, 150 mM NaCl, 10 mM phosphate, pH=7.4) or in PBS solutions containing 4.5% human serum albumin (HSA). The percent bound to HSA was determined by ultrafiltration of a 0.1 mM chelate, 4.5% HSA solution.

[4] = biological target: T2, human serum albumin (HSA); experiment: Longitudinal relaxivity (R1) in PBS containing 4.5% HSA; type: physicochemical; conditions: for Relaxivity in 4.5% HSA: longitudinal relaxivity R1, 20 MHz, 37° C., PBS pH 7.4 with 4.5% HSA, unit from R1 definition, not in table
Text: The magnetic resonance phenomena is complex, and different paramagnetic materials alter the MRI signal to various degrees. See R. B. Lauffer, Chemical Reviews (1987), 87, pp. 901–927. A quantitative measurement of the ability of a contrast agent to relax water protons, and consequently affect the MRI image, is provided by its relaxivity. Relaxivity is the dependence of water proton signal intensity upon the concentration of paramagnetic metal ion in solution. Relaxivity is defined as the induced T1 or T2 relaxation per unit time (R1 or R2 in units of mM^−1 sec^−1) observed for a contrast agent, where the concentration of the agent is expressed in a millimolar (mM).
The degree to which an agent has been tuned for maximum relaxivity can be assessed by measuring the relaxivity-bound (R1-bound) in the presence of HSA. This requires measuring the relaxivity of the free chelate (R1-free) as well as the relaxivity (R1-observed) and percent binding of the agent in 4.5% HSA. The R1-observed is a mole fraction weighted average of R1-free and R1-bound: R1-observed=(fraction-free*R1-free)+(fraction-bound*R1-bound) Thus:
as §1

[5] = biological target: T1, HSA; conditions: cited from earlier work; remark: listed apart in the source
[6] = system: alkaline phosphatase; experiment: Bioactivation of prodrug by alkaline phosphatase in 4.5% HSA, 1/T1 monitored over time; type: biochemical; conditions: for 1/T1: 4.5% HSA, three units alkaline phosphatase, 20 MHz
Experimental: A solution of prodrug 1 (0.3 mM) was prepared in PBS buffer (pH 7) containing 4.5% HSA. […] Three units of alkaline phosphatase (1 unit converts […] of p-nitrophenylphosphate to p-nitrophenol per minute in phosphate buffered saline at 0.1 mM substrate) were added to the 4.5% HSA solution of compound 1 and the 1/T1 was monitored over time.

[7] = system: alpha 1-acid glycoprotein (AAG); conditions: binding to AAG; cited from earlier work
[8] = biological target: T1, HSA; conditions: cited from earlier work; remark: listed apart in the source
[9] = cited from earlier work

T1 sequence (P02768 25-609): as above

For `COn1cc(C(=O)O)c(=O)c2cc3c(cc21)OCO3` [miloxacin], the “fraction bound to HSA (fb)” value [1] is given as 0.86.
For `O=C(O)CN(CCN(CC(=O)O)CC(COc1ccc(-c2ccc(O)cc2)cc1)N(CC(=O)O)CC(=O)O)CC(=O)O` (centres unmarked) [Compound 8], the “brightness of T1-weighted MRI scan” value ([2]; 0.1–0.2 mM in 4.5% HSA, 1.0 Tesla, equivalent concentrations, no enzyme) was “brighter than the solutions containing 1”, the “HSA binding affinity compared with prodrug” value ([3]; concentration of 0.1 mM) was “greater affinity than prodrug 1” and the “Percent Binding in 4.5% HSA” value [3] was 63 ± 2%. The “relaxivity compared with prodrug” value ([4]; bound to HSA, 0.1 mM) was “higher relaxivity” and the “Relaxivity in 4.5% HSA” value [4] was 26.4 ± 0.4 mM⁻¹ s⁻¹.
For `C[C@H](CCC(=O)O)[C@H]1CC[C@H]2[C@@H]3[C@H](O)C[C@@H]4C[C@H](O)CC[C@]4(C)[C@H]3CC[C@]12C` [chenodeoxycholic acid], the binding constant [5] is listed as 5.5×10^4.
In the case of `O=C(O)CN(CCN(CC(=O)O)CC(COc1ccc(-c2ccc(OP(=O)(O)O)cc2)cc1)N(CC(=O)O)CC(=O)O)CC(=O)O` (centres unmarked) (Gd complex, metal not drawn) [Compound 1], the “MRI image without alkaline phosphatase” value ([2]; 4.5% HSA, no alkaline phosphatase, during the MRI scans) is reported as “remained as constant dark images”, the “increase in signal intensity” value ([2]; after addition of alkaline phosphatase) is reported as 20% and the “signal intensity relative to solutions containing 8” value ([2]; with three units alkaline phosphatase, after 130 minutes, equivalent concentrations) is reported as 96%. The “change in 20 MHz proton relaxation rate 1/T1 with time” value ([6]; 0.3 mM in PBS (pH 7) with 4.5% HSA, before addition of alkaline phosphatase) was “No change”, the 1/T1 ([6]; 0.3 mM prodrug in PBS (pH 7), time 0 min) was 4.440 s⁻¹ and the 1/T1 ([6]; 0.3 mM, time 1 min) was 4.348 s⁻¹. For the same molecule, the 1/T1 ([6]; 0.3 mM, time 2 min) was 4.651 s⁻¹, the 1/T1 ([6]; 0.3 mM, time 4 min) was 4.878 s⁻¹ and the 1/T1 ([6]; 0.3 mM, time 6 min) was 5.025 s⁻¹. It also gave a 1/T1 ([6]; 0.3 mM, time 14 min) of 5.376 s⁻¹, a 1/T1 ([6]; 0.3 mM, time 48 min) of 6.250 s⁻¹ and a 1/T1 ([6]; 0.3 mM, time 90 min) of 6.849 s⁻¹. The 1/T1 ([6]; 0.3 mM, time 110 min) was 7.042 s⁻¹, the 1/T1 ([6]; 0.3 mM, time 137 min) was 7.299 s⁻¹ and the “approximate expected increase in signal intensity” value ([6]; corresponding to the change in 1/T1 upon complete activation) was roughly 24%. The “change in 1/T1 from time zero” value ([6]; upon completion of enzymatic activation of 1 to 8) was 2.86 s⁻¹, the “Percent Binding in 4.5% HSA” value [3] was 47 ± 1% and the “Relaxivity in 4.5% HSA” value [4] was 15.9 ± 0.2 mM⁻¹ s⁻¹.
For `CCn1cc(C(=O)O)c(=O)c2cc(F)c(N3CCNCC3)nc21` [enoxacin], the “fraction bound to HSA (fb)” value [1] is listed as 0.35.
For `CN(C)CCCN1c2ccccc2Sc2ccc(Cl)cc21` [chlorpromazine], the Ka [7] is listed as 35.4×10^5.
For `O=C(CCCCC(=O)Nc1c(I)cc(I)c(C(=O)O)c1I)Nc1c(I)cc(I)c(C(=O)O)c1I` [iodipamide], the “binding to HSA” value [8] is given as greater than 98%.
In the case of `CCn1cc(C(=O)O)c(=O)c2ccc(C)nc21` [nalidixic acid], the “fraction bound to HSA (fb)” value [1] is given as 0.71.
In the case of `CCn1cc(C(=O)O)c(=O)c2cc(F)c(N3CCNC(C)C3)c(F)c21` (centres unmarked) [NY-198], the “fraction bound to HSA (fb)” value [1] is given as 0.28.
In the case of `CC1(C)C(/C=C/C=C/C=C/C=C2\N(CCCCS(=O)(=O)O)c3ccc4ccccc4c3C2(C)C)=[N+](CCCCS(=O)(=O)[O-])c2ccc3ccccc3c21` [indocyanine green], the maximal absorbance ([9]; before binding to proteins) is given as 770–780 nm and the maximal absorbance ([9]; upon binding to proteins in plasma or blood) is given as 790–805 nm.
